# According to patent US11965039B2, “Compstatin analogues and their medical uses” (priority 2018, dated 2024):
# Positions of bridges follow the written chain, without caps; N, C: chain ends. Non-standard residues stand in square brackets, D forms with d. Residues, ends and D or L forms follow the SMILES beside them. Trp(1-Me) = Cn1cc(C[C@H](N)C(=O)O)c2ccccc21; Sar = CNCC(=O)O
# Tests used:
# [1] = tested on: classical complement pathway; test: In vitro haemolysis assay (inhibition of classical complement pathway); type: cell-based, human; details: human serum, sensitized sheep red blood cells; Table 3, given as upper bounds; read-out: IC50, inhibition of hemolysis
# Summary of the method: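 Compound dilutions preincubated 15 min at room temperature with diluted human serum (titrated per batch for 70-90% maximal haemolysis), then antibody-sensitized sheep RBC (10^7/well) added for 30 min at 37 °C in Tris/casein buffer, pH 7.4. Stopped with EDTA; haemolysis read at 405 nm; IC50 by 4PL fit.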
# [2] = Solubility test at 10 mg/mL (visual inspection and light scattering); type: physicochemical; details: for Solubility, Condition 1: Acetate pH 4; for Solubility, Condition 2: Acetate pH 5; for Solubility, Condition 3: Phosphate pH 6; for Solubility, Condition 4: Phosphate pH 7; for Solubility, Condition 5: Phosphate pH 7.5
Compound,IC50 [1],"Solubility, Condition 1 [2]","Solubility, Condition 2 [2]","Solubility, Condition 3 [2]","Solubility, Condition 4 [2]","Solubility, Condition 5 [2]"
CC[C@H](C)[C@H](NC(=O)[C@H](C)NC(=O)[C@H](CO)NC(C)=O)C(=O)N[C@H]1CSSC[C@@H](C(=O)N(C)CC(=O)N[C@@H](CCC(=O)O)C(N)=O)NC(=O)[C@H](CCCNC(=N)N)NC(=O)[C@H](Cc2c[nH]cn2)NC(=O)[C@H](CCC(=O)O)NC(=O)CNC(=O)[C@H](Cc2c[nH]c3ccccc23)NC(=O)[C@H](CC(=O)O)NC(=O)[C@H](CCC(N)=O)NC(=O)[C@H](Cc2c[nH]c3ccccc23)NC(=O)[C@H]([C@@H](C)CC)NC1=O [Compound 41] (Ac-SAICIWQDWGEHRC[Sar]E-NH2; disulfide 4-14),< 250 nM,"− (“−” denotes lack of solubility at the given condition, as UV absorbance at 340 nm exceeds 0.1 AU and/or it is visibly turbid or contains particles)","− (“−” denotes lack of solubility at the given condition, as UV absorbance at 340 nm exceeds 0.1 AU and/or it is visibly turbid or contains particles)","+ (“+” denotes solubility at the given condition, as determined by UV absorbance being less than 0.1 AU at 340 nm and the sample being clear when manually inspected)","+ (“+” denotes solubility at the given condition, as determined by UV absorbance being less than 0.1 AU at 340 nm and the sample being clear when manually inspected)","+ (“+” denotes solubility at the given condition, as determined by UV absorbance being less than 0.1 AU at 340 nm and the sample being clear when manually inspected)"
"CC[C@H](C)[C@@H]1NC(=O)[C@@H](NC(=O)[C@H](Cc2ccccc2)NC(=O)[C@H](CCC(=O)O)NC(=O)[C@H](CO)NC(C)=O)CSSC[C@@H](C(=O)N[C@H](C(=O)N[C@@H](CCC(=O)O)C(=O)N[C@@H](C)C(N)=O)[C@@H](C)O)NC(=O)[C@H](CCCNC(=N)N)NC(=O)[C@H](Cc2c[nH]cn2)NC(=O)[C@H](CCC(=O)O)NC(=O)CN(C)C(=O)[C@H](Cc2c[nH]c3ccccc23)NC(=O)[C@H](CC(=O)O)NC(=O)[C@H](CCC(N)=O)NC(=O)[C@H](Cc2cn(C)c3ccccc23)NC1=O [Compound 77, Ac-SEFC(1)I[1-Me-Trp]QDW[Sar]EHRC(1)TEA-NH2] (Ac-SEFCI[Trp(1-Me)]QDW[Sar]EHRCTEA-NH2; disulfide 4-14)",< 100 nM,"− (“−” denotes lack of solubility at the given condition, as UV absorbance at 340 nm exceeds 0.1 AU and/or it is visibly turbid or contains particles)","− (“−” denotes lack of solubility at the given condition, as UV absorbance at 340 nm exceeds 0.1 AU and/or it is visibly turbid or contains particles)","+ (“+” denotes solubility at the given condition, as determined by UV absorbance being less than 0.1 AU at 340 nm and the sample being clear when manually inspected)","+ (“+” denotes solubility at the given condition, as determined by UV absorbance being less than 0.1 AU at 340 nm and the sample being clear when manually inspected)","+ (“+” denotes solubility at the given condition, as determined by UV absorbance being less than 0.1 AU at 340 nm and the sample being clear when manually inspected)"
